Reference: patent US12202805B2, “Process for preparing (5S)-{[2-(4-carboxyphenyl)ethyl] |2-(2-{|3-chloro-4'-(trifluoromethyl)biphenyl-4-yl]methoxy}phenyl)ethyl]aminol-5,6,7,8-tetrahydroquinoline-2-carboxylic acid and its crystalline forms for use as pharmaceutically active compound” (Bayer Aktiengesellschaft, priority 2021, dated 2025)

Tests used:
[1] = test system: thromboxane A2 challenged PAH-minipig; assay: Haemodynamics in the anesthetized thromboxane challenged minipig, inhaled nebulized solution (PAP, BP); assay type: in vivo, Göttingen Minipigs
Protocol: E-1 Haemodynamics in the Anesthetized Thromboxane Challenged Minipig
Lung Selectivity and Duration of Action
Healthy Göttingen Minipigs® Ellegaard (Ellegaard, Denmark) of both sexes and having a weight of 2-6 kg were used. The animals were sedated by i.m. administration of about 25 mg/kg ketamine and about 10 mg/kg azaperone. Anaesthesia was initiated by i.v. administration of about 2 mg/kg ketamine and about 0.3 mg/kg midazolam. Maintenance of anaesthesia was by i.v. administration of about 7.5-30 mg/kg/h ketamine and about 1-4 mg/kg/h midazolam (rate of infusion 1-4 ml/kg/h) and about 150 μg/kg/h pancuronium bromide (for example Pancuronium-Actavis). After intubation, the animals were ventilated by the ventilator at a constant respiratory volume (10-12 ml/kg, 35 breaths/min; Avea®, Viasys Healthcare, USA, or Engström Carestation, GE Healthcare, Freiburg, Germany) such that an end-tidal CO2 concentration of about 5% was achieved. Ventilation was performed with room air, enriched with about 40% oxygen (normoxia). For the measurement of the haemodynamic parameters such as pulmonary arterial pressure (PAP), blood pressure (BP) and heart rate (HR), catheters were inserted into the carotid artery to measure the blood pressure, and a Swan-Ganz® catheter was introduced in a flow-directed manner via the jugular vein into the pulmonary artery. The haemodynamic signals were recorded and evaluated by means of pressure transducers (Combitransducer, B. Braun, Melsungen, Germany)/amplifiers and Ponemah® as data acquisition software.
After the instruments have been placed into the animals, continuous infusion of a thromboxane A2 analog was initiated to increase the pulmonary arterial pressure. About 0.3-0.75 μg/kg/min of 9,11-didesoxy-9α,11α-epoxymethanoprostaglandine F2α (U-44069; Sigma, cat. no. D0400, or Cayman Chemical Company, cat. no. 16440), dissolved in physiological saline, were infused to achieve an increase of the mean pulmonary arterial pressure to values of over 25 mmHg. 30 minutes after the start of the infusion, a plateau was reached, and the experiment was started.
The test substances were administered as i.v. infusion or by inhalation. For the preparation of the solution for inhalation, the following procedure was adopted: For an animal having a weight of 4 kg, to prepare the stock solution (300 μg/kg), 1.2 mg of the test compound were weighed out and dissolved in a total volume of 3 ml (1% DMSO, 99% 0.2% strength citric acid solution, 1 n aqueous sodium hydroxide solution to adjust the pH to 8). The solution was then diluted to the concentration employed using 0.2% strength citric acid which had been adjusted to pH 8 beforehand with aqueous sodium hydroxide solution. In each test, 3 ml of the solution of test compound per 4 kg animal were nebulized in the inhalation arm of the respiratory circuit using the Aeroneb® Pro nebulizer system. The mean nebulization time was about 7 min from the start of the nebulization.
With respect to a prediction of the duration of action for human studies comparative example 11 was compared in the PAH minipig model after inhaled application to Ventavis® (=Iloprost, 10 μg/kg nominal dose), which we used as a clinical reference. […] Therefore, the duration of action is more than 6 times longer compared to Ventavis in this preclinical animal model.

[2] = Storage stability of pseudopolymorphic forms (XRPD); assay type: physicochemical; conditions: for Result (form after storage): monohydrate II
[3] = Micronization in spiral jet mill: solid form (XRPD) and particle size distribution; assay type: physicochemical; conditions: for PSD X10 / PSD X50 / PSD X90: dry measurement 4 bar
Excerpt: For inhalative drug products it is important to guarantee a homogeneous drug substance with defined particle size <5 μm to secure delivery to the deep lung compartments. This technical requirement can be afforded by micronization of the drug substance particles.
Generally no amorphization even partial nor form conversion should happen during the necessary micronization step.
The corresponding batches (examples 8a-8 d) were micronized using a 50 mm spiral jet mill and pressurized nitrogen with the following parameters (see table 16b).
The corresponding batches were micronized using a 100 mm spiral jet mill and pressurized nitrogen with the following parameters (see table 16c).
All measurements cited in the above tables were obtained by laser diffraction with dry dispersion using compressed air. Measuring in aqueous suspension with surfactants may lead to smaller particle sizes (×90 up to 1 μm smaller).

[4] = PTFE coated jet mill, 25° C., 4.5/4.0 bar, 4.5 g/min
[5] = VA jet mill 50 mm, 25° C., 4.5/4.0 bar, 4.5 g/min
[6] = VA jet mill (low stress conditions), −65° C., 4.5/3.0 bar, 10.6 g/min
[7] = VA jet mill, −65° C., 4.5/4.0 bar, 5.5 g/min
[8] = after micronization, 100 mm spiral jet mill, monohydrate I as starting material

O=C(O)c1ccc(CCN(CCc2ccccc2OCc2ccc(-c3ccc(C(F)(F)F)cc3)cc2Cl)[C@H]2CCCc3nc(C(=O)O)ccc32)cc1 [example 2, (5S)—{[2-(4-Carboxyphenyl)ethyl][2-(2-{[3-chloro-4′-(trifluoromethyl)biphenyl-4-yl]methoxy}phenyl)-ethyl]amino}-5,6,7,8-tetrahydroquinoline-2-carboxylic acid as Monohydrate II]
minimal effective nominal dose (5% reduction in PAP) ([1]; nebulized solution, inhaled): 3 µg/kg
Result (form after storage) ([2]; brown glass closed with paper filter disc, 40° C., 75% relative humidity): monohydrate I
Result (form after storage) ([2]; brown glass snap on closure, 25° C., 60% relative humidity, one, three and six months): monohydrate II
Result (form after storage) ([2]; polyethylene, 25° C., 60% relative humidity): monohydrate I
Result (form after storage) ([2]; polyethylene, 40° C., 75% relative humidity): monohydrate I
PSD X10 [3, 4]: X10: 0.7 μm,
PSD X50 [3, 4]: X50: 1.9 μm,
PSD X90 [3, 4]: X90: 5.0 μm
PSD X10 [3, 5]: X10: 0.4 μm,
PSD X50 [3, 5]: X50: 1.7 μm,
PSD X90 [3, 5]: X90: 4.2 μm
PSD X10 [3, 6]: X10: 0.5 μm,
PSD X50 [3, 6]: X50: 2.3 μm,
PSD X90 [3, 6]: X90: 9.6 μm
PSD X10 [3, 7]: X10: 0.4 μm,
PSD X50 [3, 7]: X50: 1.8 μm,
PSD X90 [3, 7]: X90: 4.8 μm
XRPD form after micronization ([3]; batch of example 2): monohydrate II with partial amorphization

O=C(O)c1ccc(CCN(CCc2ccccc2OCc2ccc(-c3ccc(C(F)(F)F)cc3)cc2Cl)[C@H]2CCCc3nc(C(=O)O)ccc32)cc1 [comparative example 11, (5S)-5-{[2-(4-carboxyphenyl)ethyl][2-(2-{[3-chloro-4′-(trifluoromethyl)[biphenyl]-4-yl]methoxy}phenyl)ethyl]amino}-5,6,7,8-tetrahydroquinoline-2-carboxylic acid]
duration of dose dependent efficacy (PAP) ([1]; inhaled, all doses (10, 30, 100 μg/kg nominal dose), 240 min observation interval): ≥ 240 min
time of maximum effect after start inhalation ([1]; nebulized liquid formulations): about 90 min
duration of action, times longer compared to Ventavis ([1]; preclinical animal model): more than 6 times

O=C(O)c1ccc(CCN(CCc2ccccc2OCc2ccc(-c3ccc(C(F)(F)F)cc3)cc2Cl)[C@H]2CCCc3nc(C(=O)O)ccc32)cc1 [example 4, (5S)—{[2-(4-Carboxyphenyl)ethyl][2-(2-{[3-chloro-4′-(trifluoromethyl)biphenyl-4-yl]methoxy}phenyl)-ethyl]amino}-5,6,7,8-tetrahydroquinoline-2-carboxylic acid as Monohydrate I]
storage stability ([2]; under the storage conditions of Table 15): stable
stability under micronization conditions ([3]; 100 mm spiral jet mill, pressurized nitrogen): stable
PSD X10 [3, 8]: X10: 0.7 μm,
PSD X50 [3, 8]: X50: 2.1 μm,
PSD X90 [3, 8]: X90: 6.1 μm
